Data on 14 molecules can be found in PubChem BioAssay (NCI).

Test systems include RXF 393 renal; OVCAR-4 ovarian; KM12 colon; SR leukemia; HOP-62 NSCLC; BT-549 breast; HCT-15 colon; A549 NSCLC; SK-MEL-28 melanoma; IGROV1 ovarian.
Holding throughout (assay): NCI anticancer screen, dose series, 48 h

The structures appear in SMILES notation. Values joined by “and” are separate entries in the source; they are usually repeats but may differ in a detail not shown here. Equal entries are not always repeated.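 Tested at 5 concentrations; 48 h exposure; 96-well plates; endpoints linearly interpolated, else capped at highest concentration. GI50: concentration for 50% inhibition of growth. At the TGI there is no net growth.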

Turning to `NC(CSC(c1ccccc1)(c1ccccc1)c1ccccc1)C(=O)O` (centres undefined), the GI50 is 0.708 µM and 0.454 µM in the test with RXF 393 renal; 11.6 µM and 11.2 µM with OVCAR-4 ovarian; 5.15 µM and 2.35 µM in the test on KM12 colon; 19.3 µM and 4.5 µM with HOP-62 NSCLC; 4.88 µM in the test on BT-549 breast; 2.31 µM and 1.79 µM with HCT-15 colon. In addition, the GI50 was 4.86 µM and 2.75 µM in the test on A549 NSCLC; 12.2 µM and 4.46 µM in the test with SK-MEL-28 melanoma; 3.98 µM and 4.69 µM in the test with IGROV1 ovarian. For the same molecule, the TGI with RXF 393 renal was 22.8 µM and > 100 µM; in the test with OVCAR-4 ovarian, 61 µM and > 100 µM; in the test on KM12 colon, 96.3 µM and 24 µM; in the test on SR leukemia, 19.3 µM and 43.8 µM; in the test on HOP-62 NSCLC, 63 µM and > 100 µM; in the test on BT-549 breast, 57.8 µM and > 100 µM. For the same molecule, the TGI in the test on HCT-15 colon is 51.1 µM and > 100 µM; with A549 NSCLC, 82.1 µM and > 100 µM; with SK-MEL-28 melanoma it was 110 µM and > 100 µM; in the test on IGROV1 ovarian, 84.8 µM and > 100 µM.
Regarding `CCN(Cc1cc(Cl)cc(C)c1O)Cc1c(O)ccc2ccccc12`, the TGI turned out to be 31.2 µM in the test with RXF 393 renal; 31.6 µM in the test with OVCAR-4 ovarian; 33 µM in the test on KM12 colon; 52.5 µM in the test with SR leukemia; 26.4 µM in the test on HOP-62 NSCLC; 27.4 µM in the test with BT-549 breast. The TGI in the test with HCT-15 colon was 30.5 µM; in the test with A549 NSCLC, 38 µM; with SK-MEL-28 melanoma, 34.8 µM; with IGROV1 ovarian it was 31.1 µM.
`Cc1cccc(CNc2c3ccccc3nc3ccccc23)c1`: the GI50 with RXF 393 renal was 1.54 µM; with OVCAR-4 ovarian it was 1.74 µM; with KM12 colon, 3.16 µM; in the test on SR leukemia, 1.94 µM; with HOP-62 NSCLC, 3.14 µM; in the test on BT-549 breast it was 2.34 µM. For the same molecule, the GI50 is 1.83 µM in the test with HCT-15 colon, 1.88 µM in the test with A549 NSCLC, 1.89 µM in the test on SK-MEL-28 melanoma and 2.17 µM in the test with IGROV1 ovarian. Further, the TGI in the test with RXF 393 renal was 3.07 µM; in the test with OVCAR-4 ovarian, 5.59 µM; with KM12 colon it was 12.1 µM; in the test with SR leukemia, 8.62 µM; in the test on HOP-62 NSCLC, 16.1 µM; in the test with BT-549 breast, 6.32 µM. For the same molecule, the TGI in the test on HCT-15 colon is 4.59 µM; in the test on A549 NSCLC, 4.86 µM; in the test on SK-MEL-28 melanoma it was 4.07 µM; in the test with IGROV1 ovarian, 6.79 µM.
With `Cc1cc(NC(=O)NCCOc2ccc(N3C(N)=NC(N)=NC3(C)C)cc2Cl)ccc1S(=O)(=O)F`, the GI50 with RXF 393 renal is 2.05 µM; in the test on OVCAR-4 ovarian, 2.75 µM; in the test with KM12 colon it was 1.04 µM; in the test with SR leukemia, 0.493 µM; with HOP-62 NSCLC, 8.36 µM; in the test on BT-549 breast it was 6.31 µM. The GI50 is 49 µM in the test with HCT-15 colon, 1.4 µM with A549 NSCLC, 3.59 µM with SK-MEL-28 melanoma and 0.545 µM in the test on IGROV1 ovarian. Besides, the TGI was greater than 100 µM with RXF 393 renal; greater than 77.5 µM in the test on OVCAR-4 ovarian; greater than 44.3 µM in the test on KM12 colon; 40 µM in the test with SR leukemia; greater than 73.2 µM in the test with HOP-62 NSCLC; greater than 76.8 µM with BT-549 breast. The TGI with HCT-15 colon is greater than 100 µM; with A549 NSCLC it was greater than 68.3 µM; with SK-MEL-28 melanoma, greater than 91.7 µM; in the test with IGROV1 ovarian, greater than 100 µM.
In the case of `CN(C)S(=O)(=O)c1cccc(C(=O)Nc2nc(-c3ccc(F)c(F)c3)cs2)c1`, the GI50 in the test with RXF 393 renal is 12.4 µM; in the test on OVCAR-4 ovarian, 4.62 µM; in the test with KM12 colon, 24.2 µM; in the test with SR leukemia, 6.17 µM; in the test on HOP-62 NSCLC it was 12.7 µM; in the test on BT-549 breast, 3.88 µM. For the same molecule, the GI50 is greater than 40.4 µM in the test on HCT-15 colon, 13.2 µM in the test with A549 NSCLC, 18.8 µM in the test with SK-MEL-28 melanoma and 28 µM in the test on IGROV1 ovarian. Moreover, the TGI in the test with RXF 393 renal is greater than 81.5 µM; in the test with OVCAR-4 ovarian, greater than 84.1 µM; in the test on KM12 colon it was greater than 100 µM; in the test with SR leukemia, greater than 100 µM; in the test with HOP-62 NSCLC, greater than 100 µM; in the test with BT-549 breast it was greater than 27.4 µM. The TGI in the test with HCT-15 colon was greater than 100 µM; with A549 NSCLC it was greater than 100 µM; with SK-MEL-28 melanoma, greater than 100 µM; with IGROV1 ovarian it was greater than 96.4 µM.
`OCc1c(-c2cccs2)oc(-c2cccs2)c1CO`: the GI50 with RXF 393 renal is 22.7 µM; in the test on OVCAR-4 ovarian, greater than 100 µM; with KM12 colon, 21.3 µM; in the test with SR leukemia, 32.5 µM; in the test on HOP-62 NSCLC it was greater than 100 µM; with BT-549 breast, 56 µM. The GI50 was 40.1 µM with HCT-15 colon, 54.9 µM in the test with A549 NSCLC, greater than 100 µM in the test with SK-MEL-28 melanoma and 58.3 µM in the test with IGROV1 ovarian. In addition, the TGI in the test on RXF 393 renal was 78.5 µM; in the test on OVCAR-4 ovarian it was greater than 100 µM; in the test on KM12 colon it was greater than 100 µM; in the test with SR leukemia, 60.5 µM; in the test with HOP-62 NSCLC, greater than 100 µM; in the test with BT-549 breast, greater than 100 µM. Moreover, the TGI in the test with HCT-15 colon, in the test on A549 NSCLC, in the test on SK-MEL-28 melanoma and in the test with IGROV1 ovarian was greater than 100 µM in each case.
`Nc1nc(N)nc(CCCCc2nc(N)nc(N)n2)n1`: the TGI in the test on RXF 393 renal, in the test with OVCAR-4 ovarian, in the test on KM12 colon, with SR leukemia, in the test on HOP-62 NSCLC and in the test on BT-549 breast was greater than 100 µM in each case. The TGI in the test on HCT-15 colon, with A549 NSCLC, with SK-MEL-28 melanoma and with IGROV1 ovarian was greater than 100 µM in each case.
Consider `NCC(=O)Nc1ccc(Cl)cc1C(=O)c1ccc[nH]1`, for which the TGI with RXF 393 renal is greater than 100 µM; with OVCAR-4 ovarian, greater than 94.9 µM; in the test with KM12 colon, greater than 100 µM; in the test on SR leukemia, greater than 100 µM; in the test with HOP-62 NSCLC it was greater than 100 µM; in the test with BT-549 breast it was greater than 100 µM. For the same molecule, the TGI in the test with HCT-15 colon, with A549 NSCLC, with SK-MEL-28 melanoma and with IGROV1 ovarian was greater than 100 µM in each case.
With `O=C1OC(C(O)CO)C(C(O)CO)OC1=O` (centres undefined), the TGI in the test with RXF 393 renal, with OVCAR-4 ovarian, in the test with KM12 colon, with SR leukemia, in the test with HOP-62 NSCLC and with BT-549 breast was greater than 10 µM each time. Further, the TGI in the test with HCT-15 colon, in the test on A549 NSCLC, in the test on SK-MEL-28 melanoma and with IGROV1 ovarian was greater than 10 µM throughout.
Turning to `CN[C@@H](C)C(=O)N[C@H](C(=O)N1CCC[C@H]1c1nc(C(=O)c2ccc(F)cc2)cs1)C1CCCCC1`, the GI50 with RXF 393 renal was 1.94 µM; in the test on OVCAR-4 ovarian, 0.51 µM; in the test with KM12 colon, 21.8 µM; in the test with SR leukemia, 11.5 µM; in the test on HOP-62 NSCLC, 20 µM; in the test on BT-549 breast, 11.7 µM. In addition, the GI50 in the test on HCT-15 colon was 27.7 µM; with A549 NSCLC, 35.2 µM; in the test with SK-MEL-28 melanoma, 16.6 µM; in the test with IGROV1 ovarian it was 33.9 µM. Moreover, the TGI was 16.3 µM in the test with RXF 393 renal; 13.9 µM in the test on OVCAR-4 ovarian; 51.4 µM in the test on KM12 colon; 38 µM with SR leukemia; greater than 65 µM with HOP-62 NSCLC; 26.7 µM in the test with BT-549 breast. Besides, the TGI was greater than 95.9 µM with HCT-15 colon, greater than 100 µM in the test on A549 NSCLC, 32 µM in the test on SK-MEL-28 melanoma and greater than 100 µM in the test on IGROV1 ovarian.
For the molecule `C=C1C(=O)OC2CC1C(OC(=O)/C=C/c1ccccc1)C/C(C)=C/CC/C(C)=C/CCC2(C)O` (centres undefined), the TGI is 2.72 µM in the test with RXF 393 renal; 2.96 µM in the test on OVCAR-4 ovarian; 3.41 µM with KM12 colon; greater than 21.6 µM in the test with SR leukemia; 3.23 µM with HOP-62 NSCLC; 2.8 µM in the test on BT-549 breast. Further, the TGI in the test on HCT-15 colon worked out at 2.67 µM; in the test with A549 NSCLC, 3.19 µM; in the test with SK-MEL-28 melanoma it was 15.6 µM; with IGROV1 ovarian, 3.07 µM.
Take `C[C@H]1C[C@@H](n2c(Nc3ccc(OC(F)(F)F)cc3)nc3cc(CCC(=O)O)ccc32)CC(C)(C)C1`: the GI50 is 11.3 µM with RXF 393 renal; 11.2 µM with OVCAR-4 ovarian; 10.5 µM in the test on KM12 colon; 6.23 µM in the test on SR leukemia; 20.6 µM in the test on HOP-62 NSCLC; 3.13 µM in the test with BT-549 breast. The GI50 is 5.69 µM with HCT-15 colon, 11.1 µM in the test on A549 NSCLC, 8.26 µM in the test on SK-MEL-28 melanoma and 12.6 µM with IGROV1 ovarian. Further, the TGI in the test on RXF 393 renal was determined as 25.2 µM; with OVCAR-4 ovarian, 29.1 µM; with KM12 colon it was 24 µM; in the test on SR leukemia, 36.6 µM; in the test on HOP-62 NSCLC it was 39.4 µM; in the test with BT-549 breast it was 12 µM. The TGI with HCT-15 colon was determined as 18.9 µM; in the test on A549 NSCLC, 30.2 µM; in the test on SK-MEL-28 melanoma, 22.5 µM; in the test with IGROV1 ovarian it was 28.7 µM.
For `O=C1OC(c2ccc([N+](=O)[O-])cc2)=N/C1=C\c1ccc(Cl)cc1`, the TGI in the test with RXF 393 renal, in the test with OVCAR-4 ovarian, in the test with KM12 colon, with SR leukemia, with HOP-62 NSCLC and in the test on BT-549 breast was greater than 100 µM each time. For the same molecule, the TGI with HCT-15 colon, in the test with A549 NSCLC, with SK-MEL-28 melanoma and in the test on IGROV1 ovarian was greater than 100 µM in each case.
For the molecule `CC(=O)CC[N+](C)(C)C`, the TGI is 20.1 µM in the test with RXF 393 renal; 30.2 µM with OVCAR-4 ovarian; greater than 81.5 µM in the test on KM12 colon; 21.5 µM in the test on SR leukemia; greater than 100 µM in the test with HOP-62 NSCLC; 62.6 µM with BT-549 breast. In addition, the TGI is 46.4 µM with HCT-15 colon, greater than 94.6 µM in the test with A549 NSCLC, 50 µM in the test with SK-MEL-28 melanoma and 53.4 µM in the test on IGROV1 ovarian.
